Assay results: the supplement of paper PMC10307832

Legend:
Experiment in all cases: relative viability (nuclei count vs DMSO), 5 days (fraction); higher = more cells survive
Temozolomide = compound: Cn1nnc2c(C(N)=O)ncn2c1=O [Temozolomide]
How it was run: (§1)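 Cells of lung cancer lines were placed in 1536-well plates and kept overnight at 37 °C. Pinning then delivered five library-drug doses (not always all listed), spaced by √10, onto plates anchored with vehicle, and the cells were left 5 days without changing medium. One step fixed, permeabilised and stained them with Hoechst, and MetaXpress counted nuclei in 4× images. Viability, as a median over plates, is treated-well nuclei divided by vehicle-well nuclei, with acceptance only at control CV below 25% and at least one doubling.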

AZD5582 = compound: C[C@@H](C(=O)N[C@@H](C1CCCCC1)C(=O)N2CCC[C@H]2C(=O)N[C@@H]3[C@@H](CC4=CC=CC=C34)OCC#CC#CCO[C@@H]5CC6=CC=CC=C6[C@@H]5NC(=O)[C@@H]7CCCN7C(=O)[C@H](C8CCCCC8)NC(=O)[C@H](C)NC)NC [AZD5582]
How it was run: as §1

AZD5582 + Foretinib = compound: C[C@@H](C(=O)N[C@@H](C1CCCCC1)C(=O)N2CCC[C@H]2C(=O)N[C@@H]3[C@@H](CC4=CC=CC=C34)OCC#CC#CCO[C@@H]5CC6=CC=CC=C6[C@@H]5NC(=O)[C@@H]7CCCN7C(=O)[C@H](C8CCCCC8)NC(=O)[C@H](C)NC)NC [AZD5582] + COc1cc2c(Oc3ccc(NC(=O)C4(C(=O)Nc5ccc(F)cc5)CC4)cc3F)ccnc2cc1OCCCN1CCOCC1 [Foretinib] (partner 0.25 µM)
How it was run: (§2)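 A single step with final 0.05% Triton X-100, 1% formaldehyde and 1 ug/ml Hoechst fixed the cells and stained nuclei 5 days after treatment. Lung cancer cell lines in 1536-well plates had been treated by pin tool the day after seeding with one drug alone or a fixed anchor-drug dose plus five library-drug doses (not always all listed) in √10 steps, and nuclei were counted on 4× images. Relative viability is the ratio of nuclei in treated wells to nuclei in vehicle wells, taken as the median of duplicate plates.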

AZD5582 + Navitoclax = compound: C[C@@H](C(=O)N[C@@H](C1CCCCC1)C(=O)N2CCC[C@H]2C(=O)N[C@@H]3[C@@H](CC4=CC=CC=C34)OCC#CC#CCO[C@@H]5CC6=CC=CC=C6[C@@H]5NC(=O)[C@@H]7CCCN7C(=O)[C@H](C8CCCCC8)NC(=O)[C@H](C)NC)NC [AZD5582] + CC1(C)CCC(c2ccc(Cl)cc2)=C(CN2CCN(c3ccc(C(=O)NS(=O)(=O)c4ccc(N[C@H](CCN5CCOCC5)CSc5ccccc5)c(S(=O)(=O)C(F)(F)F)c4)cc3)CC2)C1 [Navitoclax] (partner 0.5 µM)
How it was run: as §2

Row | Cell Line | relative viability (Temozolomide; 0.2 µM) | relative viability (Temozolomide; 0.6325 µM) | relative viability (Temozolomide; 2 µM) | relative viability (Temozolomide; 6.325 µM) | relative viability (Temozolomide; 20 µM) | relative viability (AZD5582; 0.001581 µM) | relative viability (AZD5582; 0.005 µM) | relative viability (AZD5582; 0.01581 µM) | relative viability (AZD5582; 0.05 µM) | relative viability (AZD5582 + Foretinib; first compound 0.001581 µM) | relative viability (AZD5582 + Foretinib; first compound 0.005 µM) | relative viability (AZD5582 + Foretinib; first compound 0.01581 µM) | relative viability (AZD5582 + Foretinib; first compound 0.05 µM) | relative viability (AZD5582 + Navitoclax; first compound 0.001581 µM) | relative viability (AZD5582 + Navitoclax; first compound 0.005 µM) | relative viability (AZD5582 + Navitoclax; first compound 0.01581 µM) | relative viability (AZD5582 + Navitoclax; first compound 0.05 µM)
1 | NCI-H1734 | 1.12 | 1.05 | 1.06 | 0.932 | 0.976 | 0.968 | 1.11 | 1.03 | 1.23 | 0.814 | 0.892 | 0.968 | 1.11 | 0.791 | 0.866 | 0.886 | 0.954
2 | NCI-H1755 | 1.08 | 0.971 | 1.04 | 0.965 | 0.818 | 0.939 | 0.99 | 0.946 | 1.05 | 0.939 | 0.98 | 0.846 | 1 | 0.933 | 0.973 | 1.01 | 1
3 | NCI-H1793 | – | 0.919 | 0.918 | 0.87 | 0.636 | 0.897 | 1.05 | 0.822 | 0.797 | 0.737 | 0.827 | 0.572 | 0.908 | 0.475 | 0.453 | 0.476 | 0.465
4 | NCI-H1915 | 1.09 | 0.987 | 0.946 | 0.602 | 0.386 | 0.899 | 1 | 0.805 | 0.947 | 1.06 | 1.09 | 1.13 | 1.09 | 0.777 | 0.757 | 0.793 | 0.746
5 | NCI-H1944 | 0.946 | 0.959 | 1.04 | 0.919 | 0.816 | 0.867 | 1.04 | 0.921 | 1.01 | 0.8 | 0.976 | 0.93 | 1.05 | 0.985 | 1.13 | 1.08 | 1.11
6 | NCI-H1975 | 1.01 | 1.01 | 1.09 | 0.919 | 0.957 | 1 | 1.13 | 0.944 | 1.2 | 0.926 | 1.17 | 1.06 | 1.2 | 1.12 | 1.19 | 1.18 | 1.2
7 | NCI-H1993 | 0.866 | 0.968 | 0.953 | 0.944 | 0.758 | 0.758 | 1.1 | 0.957 | 1 | 0.792 | 0.786 | 0.854 | 0.715 | 0.917 | 0.936 | 0.876 | 0.922
8 | NCI-H2009 | 1.05 | 1.01 | 1.05 | 0.923 | 1.06 | 0.916 | 1.09 | 0.943 | 0.988 | 1.22 | 1.28 | 1.19 | 1.29 | 1.14 | 1.21 | 1.15 | 1.18
9 | NCI-H2023 | 0.979 | 0.943 | 1.01 | 0.984 | 0.941 | 0.842 | 0.962 | 0.84 | 0.934 | 0.805 | 0.851 | 0.802 | 0.804 | 0.962 | 0.844 | 1.01 | 0.956
10 | NCI-H2085 | 1 | 1.02 | 1.02 | 0.964 | 0.949 | 1.05 | 1.08 | 0.998 | 0.993 | 1.06 | 0.776 | 0.924 | 0.698 | 1.14 | 1.1 | 1.12 | 1.01
11 | NCI-H2087 | 1.31 | 1.12 | 1.07 | 0.937 | 1.01 | 0.98 | 1.12 | 0.982 | 1.03 | 0.957 | 1.24 | 1.05 | 1.16 | 1.03 | 0.864 | 1.05 | 1.05
12 | NCI-H2126 | 0.957 | 1.03 | 1.05 | 0.98 | 1.03 | 0.93 | 1.04 | 0.808 | 0.901 | 1.15 | 1.19 | 1.05 | 0.969 | 0.829 | 0.835 | 0.834 | 0.706
13 | NCI-H2170 | – | 1.06 | 1 | 0.858 | 0.582 | 0.956 | 0.985 | 0.987 | 0.989 | 1.04 | 1.01 | 1 | 1.09 | 0.551 | 0.624 | 0.624 | 0.758
14 | NCI-H2228 | 1.19 | 0.928 | 1.15 | 0.881 | 1.05 | 1.01 | 1.05 | 0.942 | 0.538 | 0.843 | 1 | 0.788 | 0.472 | 0.904 | 0.851 | 0.837 | 0.555
15 | NCI-H2347 | 1.06 | 1.16 | 1.08 | 0.979 | 0.976 | 0.956 | 1.03 | 0.919 | 0.979 | 0.688 | 0.736 | 0.557 | 0.794 | 0.747 | 0.941 | 0.791 | 0.748
16 | NCI-H2405 | 1.05 | 1 | 1.06 | 0.935 | 0.978 | 1 | 1.12 | 0.957 | 1.02 | 1 | 1.07 | 0.987 | 1.06 | 0.875 | 1.21 | – | 0.866
17 | NCI-H3122 | 1.02 | 1.03 | 1.06 | 0.945 | 0.97 | 0.938 | 1.02 | 1 | 0.265 | 0.977 | 0.994 | 0.933 | 0.602 | 1.04 | 1.03 | 1.01 | 0.619
